# Measured values from patent US12251368B2, “Continuous administration of pharmaceutical composition for treatment of neurodegenerative disorders” (InTrance Medical Systems Inc., priority 2018, dated 2025).
# Several values for one entry are separate records, joined by “and”; a condition that tells them apart may be missing. Equal entries are not always repeated.
# Assays:
# [1] = Storage stability / shelf life of intra-intestinal gel; format: physicochemical
# [2] = cited from earlier work
# [3] = biological target: T1, peripheral dopamine decarboxylase (Homo sapiens, UniProt P20711); settings: KINSON prescribing information; cited from earlier work
# T1 construct: host or cells: patients (peripheral tissues)
# T1 sequence (P20711 1-480): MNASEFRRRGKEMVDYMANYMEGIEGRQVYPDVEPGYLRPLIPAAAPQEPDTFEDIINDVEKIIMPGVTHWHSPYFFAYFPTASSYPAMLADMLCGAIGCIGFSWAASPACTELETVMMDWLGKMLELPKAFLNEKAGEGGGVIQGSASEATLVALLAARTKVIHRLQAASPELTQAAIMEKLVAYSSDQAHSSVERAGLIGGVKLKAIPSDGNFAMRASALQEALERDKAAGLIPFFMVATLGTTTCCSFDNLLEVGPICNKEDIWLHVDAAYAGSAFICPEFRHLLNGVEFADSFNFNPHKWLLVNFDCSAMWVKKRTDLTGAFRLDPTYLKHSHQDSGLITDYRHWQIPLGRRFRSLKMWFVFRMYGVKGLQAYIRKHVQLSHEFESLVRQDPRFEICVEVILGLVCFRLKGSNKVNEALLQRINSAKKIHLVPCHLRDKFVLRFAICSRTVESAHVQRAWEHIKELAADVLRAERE
# [4] = in vivo; cited from earlier work
# [5] = cited from earlier work; remark: listed apart in the source
# [6] = in the presence of COMT inhibitors; literature reports; cited from earlier work
# [7] = intravenous administration (3 mg/kg); cited from earlier work
compound,measurement,setting,value
"C[C@@](Cc1ccc(O)c(O)c1)(NN)C(=O)O [Carbidopa, (−)-L-α-hydrazino-α-methyl-β-(3,4-dihydroxybenzene) propanoic acid monohydrate]",effect of storage in a light reducing container on degradation,"[1]; light reducing container, such as an aluminum bag",some positive effect
same,solubility in water,[2],slightly soluble in water
same,dose at which peripheral dopamine decarboxylase is saturated,[3],70-100 mg per day
same,crossing of the blood-brain barrier,[4],does not cross the blood-brain barrier
"N[C@@H](Cc1ccc(O)c(O)c1)C(=O)O [Levodopa, (−)-L-α-amino-β-(3,4-dihydroxybenzene) propanoic acid]",stability in intra-intestinal gel,[1]; prior art LCIG and gel compositions of the invention,relatively stable
same,bioavailability,"[5]; administered via DUODOPA gel, same as in a tablet",81-98%
same,fraction metabolized to dopamine before levodopa reaches the brain,[5]; intake of levodopa alone,more than 90%
same,solubility in water,[2],slightly soluble in water
same,crossing of the blood-brain barrier,[4],does cross the blood-brain barrier
"Cc1ccc(C(=O)c2cc(O)c(O)c([N+](=O)[O-])c2)cc1 [Tolcapone, (3,4-Dihydroxy-5-nitrophenyl)(4-methylphenyl)methanone]",Levodopa bioavailablity increase,[6],33% and 25%
same,elimination half-life,[7],2.9 h
"NCCc1ccc(O)c(O)c1 [dopamine, 3,4-dihydroxyphenethylamine]",crossing of the blood-brain barrier,[4],does not cross the blood-brain barrier
